2 compounds from patent US20250281649A1, “PROBE DIRECTED TO ENZYME ALDH1A3 AND USE THEREOF IN THE DIAGNOSIS OF GLIOBLASTOMA” (Universita' Degli Studi Del Piemonte Orientale "A. Avogadro", priority 2021, published 2025) can be followed below.

In test [1] the target is T1, ALDH1A1 (Homo sapiens, UniProt P00352).
T1 construct: His-tag; made in house; host or cells: bacterial cells
T1 sequence (P00352 1-501): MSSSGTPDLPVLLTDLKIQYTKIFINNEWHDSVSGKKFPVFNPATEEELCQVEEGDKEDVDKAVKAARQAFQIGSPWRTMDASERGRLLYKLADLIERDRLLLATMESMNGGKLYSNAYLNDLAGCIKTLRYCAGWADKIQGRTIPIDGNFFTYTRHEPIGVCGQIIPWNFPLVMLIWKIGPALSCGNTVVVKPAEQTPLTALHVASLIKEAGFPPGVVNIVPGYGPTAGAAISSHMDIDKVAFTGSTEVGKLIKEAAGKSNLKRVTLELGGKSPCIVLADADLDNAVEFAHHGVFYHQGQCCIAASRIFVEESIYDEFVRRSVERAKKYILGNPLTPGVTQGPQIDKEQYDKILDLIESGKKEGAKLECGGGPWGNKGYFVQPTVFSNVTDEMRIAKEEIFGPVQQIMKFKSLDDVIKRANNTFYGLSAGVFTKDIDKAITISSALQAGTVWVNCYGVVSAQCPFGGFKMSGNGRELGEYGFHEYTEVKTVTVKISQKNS
The test can be described thus: IC50 evaluation, NADH formation at 340 nm (Tecan SUNRISE). Format: biochemical. The note with it: ALDH1A1; 20 mM acetaldehyde, 500 μM NAD+, 15% DMSO, 2.7 μM isoenzyme; read-out: IC50. Here is the method: (§1) A common protocol to express and purify all three members of the ALDHIA subfamily has been optimized. Briefly, induced cells, collected by centrifugation, were re-suspended in an appropriate volume of lysis buffer (50 mM Na2HPO4, 300 mM NaCl, 1 mM β-mercaptoethanol, 20 mM imidazole, pH 7.5) added of benzonase nuclease (250 U/μL) and Protease inhibitor cocktail from SIGMA. After ultracentrifugation, the clarified sample was purified by a His-tag affinity chromatography followed by size-exclusion chromatography, using an AKTA FPLC system, at 4° C. To evaluate the purity and homogeneity of the protein, after each purification step, eluted d fractions were analyzed by SDS-PAGE and the protein quantification was always determined by Bradford protein assay.
IC50 evaluation: on a Tecan—SUNRISE, probe 13 was tested in a serial dilution series from 200 μM to 3, 125 μM, against all the three isoenzymes. The recipe of reaction buffer was: 20 mM Tris HCl pH=8, 150 mM KCl, 1 mM B-mercaptoethanol, 500 μM NAD^+, 15% DMSO fixed, 20 mM acetaldehyde and 2.7 μM each isoenzyme. The analysis was conducted measuring the NADH formation, that has a specific absorbance wavelength (340 nm). The test was performed in triplicate with all the three isoenzymes.

The target of test [2] is T2, ALDH1A3 (Homo sapiens, UniProt P47895).
T2 construct: His-tag; made in house; host or cells: bacterial cells
T2 sequence (P47895 1-512): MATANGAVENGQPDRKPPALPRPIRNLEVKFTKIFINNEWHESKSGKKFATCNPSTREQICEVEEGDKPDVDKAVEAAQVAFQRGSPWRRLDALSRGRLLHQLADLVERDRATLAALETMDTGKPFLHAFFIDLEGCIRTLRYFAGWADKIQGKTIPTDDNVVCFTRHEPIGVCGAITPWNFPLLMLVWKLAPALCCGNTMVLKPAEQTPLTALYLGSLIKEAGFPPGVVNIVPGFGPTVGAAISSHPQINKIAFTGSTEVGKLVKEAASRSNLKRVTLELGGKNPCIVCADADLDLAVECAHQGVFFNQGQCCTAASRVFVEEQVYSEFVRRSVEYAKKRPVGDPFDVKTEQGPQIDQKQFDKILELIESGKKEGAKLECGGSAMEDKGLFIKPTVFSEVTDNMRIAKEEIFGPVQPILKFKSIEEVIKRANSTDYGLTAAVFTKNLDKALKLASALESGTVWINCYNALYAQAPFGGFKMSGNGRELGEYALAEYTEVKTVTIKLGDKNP
The test can be described thus: Ki evaluation, competitive inhibition vs acetaldehyde, NADH formation. Conditions: competitive vs acetaldehyde 1-20 mM. Format: biochemical. The procedure:
as §1
Ki evaluation: on a Tecan—SUNRISE, probe 13 was tested as a possible competitive inhibitor, at a variable concentration (200, 100, 50, 10, 1 and 0 μM). In the same plate, different the acetaldehyde was tested at concentrations (1, 2.5, 5, 10, 15 and 20 mM) to describe the competitive mechanism. The recipe of the buffer reaction was the same as described before. The analysis was conducted measuring the NADH formation, that has a specific absorbance wavelength (340 nm). The test was performed in triplicate only with the ALDH1A3.

The test system of test [3] is GL261 cells. The test can be described thus: Penetration into GL261 cells in vitro. Format: cell-based, mouse. An excerpt:
We used in vitro and in vivo cells from a mouse high grade glioma cell line, GL261, Briefly, twenty-four 2- to 3-month-old female C57BIC mice were stereotactically implanted under deep general anesthesia (isoflurane supplemented with nitrous oxide) with 1×10^5 GL261 glioblastoma cells. The cells were stereotactically inoculated through a burr hole by a Hamilton syringe into the left striatum (coordinates: 1 mm anteroposterior and 1 mm lateral from bregma, at a depth of 3 mm). All experimental procedures were conducted in accordance with the European Communities Council Directive of 24 Nov. 1986 (86/609 EEC), Recommendation 18/06/2007, Dir. 2010/63/UE, and the Italian law for care and use of experimental animals (DL116/92) and were approved by the Italian Ministry of Health (prot. E669C.15) and the Bioethical Committee of the University of Turin. All animals were housed under a 12-hour light-dark cycle in an environmentally controlled room. All experiments were designed to minimize the numbers of animals used and their discomfort. In each experiment, animals with tumors were allocated to two groups and i.p. injected with probe 14 or probe 13. All drugs were administered intraperitoneally, and treatments were started days 6 after tumor implantation. […] Quantitative and phenotypic evaluations were made on images acquired with a Leica TCS SP5 confocal microscope.

A word on the IC50: it is the concentration at which inhibition is half-maximal. As usually defined, the Ki is a dissociation constant, usually derived from enzyme kinetics or from competition with a known ligand. On to `COc1cc(/C=C/C(=O)/C=C(O)/C=C/c2ccc(OCc3cn(CCOc4ccc(C=O)cc4)nn3)c(OC)c2)ccc1O` [Compound 13], for which, in test [1], the half-maximal inhibitory concentration (IC50) came out at 196 µM. The compound further had a Ki in test [2] of 0.9 µM.

On to `CCOC(=O)Cn1cc(COc2ccc(/C=C/C(O)=C/C(=O)/C=C/c3ccc(O)c(OC)c3)cc2OC)nn1` [Compound 14], for which the IC50 in test [1] is 114 µM. Moreover, the “penetration into cells in vitro” value in test [3] is “penetrates GL261 cells in vitro”.
